Data taken from patent US20210353579A1, “HIGH PENETRATION COMPOSITIONS AND USES THEREOF” (Techfields Pharma Co., Ltd., priority 2006, published 2021).

Experiments:
mice = assay: Analgesic activity, acetic acid writhing; assay type: in vivo
Method: The prodrug compounds are administered either transdermally or orally. The parent compounds are administered orally. The number of writhing that occurred when mice are administered the acetic acid solution are counted, and the rate of inhibition based on the control group which was not pretreated with any test compounds is calculated. […] The A group is the control group.

rats = assay: Antipyretic activity, E. coli suspension as pyrogen; assay type: in vivo; settings: in °C (unit assumed)
Method: Rats are administered with sterilized E. coli suspension as a pyrogen. Each group of rats are administered with a prodrug compounds or parent compounds at a dosage specified below. The prodrug compounds are administered either orally or transdermally. The parent compounds are administered orally.

[1] = Plasma levels after transdermal administration to hairless mice; assay type: in vivo; settings: for Peak plasma concentration of parent compound after prodrug compound / t, time to peak plasma level of parent compound after prodrug compound: mouse, in vivo; for t, time to peak plasma level after parent compound: parent compound administered (time when taken orally); for Peak plasma concentration after parent compound: parent compound administered, hairless mice
Method: Tested compounds (20% solution or suspension in 1 mL isopropanol) are administered transdermally to the skin of intact hairless mice. The plasma levels of the parent compounds are determined by HPLC.

human skin tissue = settings: pH 7.4; for In vitro penetration rate (apparent flux), parent compounds: human, 20 %
[2] = 50 mg/kg transdermally, 60 minutes before acetic acid
[3] = 100 mg/kg transdermally, 30 min before acetic acid

t, time to peak plasma level after parent compound [1] | Peak plasma concentration after parent compound [1] | In vitro penetration rate (apparent flux), parent compounds (human skin tissue) | Compound | % (rate of writhing inhibition) (mice; [2]) | No. of Writhing (mice; [2]) | body temperature, t = 0 min (rats; 25 mg/kg transdermally) | body temperature, t = 90 min (rats; 25 mg/kg transdermally) | body temperature, t = 180 min (rats; 25 mg/kg transdermally) | body temperature, t = 270 min (rats; 25 mg/kg transdermally) | Peak plasma concentration of parent compound after prodrug compound [1] | In vitro penetration rate (apparent flux), prodrug compounds (human skin tissue) | % (rate of writhing inhibition) (mice; [3]) | No. of Writhing (mice; [3]) | body temperature, t = 0 min (rats; 100 mg/kg transdermally) | body temperature, t = 90 min (rats; 100 mg/kg transdermally) | body temperature, t = 180 min (rats; 100 mg/kg transdermally) | body temperature, t = 270 min (rats; 100 mg/kg transdermally) | t, time to peak plasma level of parent compound after prodrug compound [1]
 |  |  | 8-chloro-(4-N,N-dimethylaminobutyryloxy-pyridine-2-ylamino-methylidene)-3-methyl-2,2-dioxo-2λ^6,7-dithia-3-azabicyclo[4,3,0]nona-8,10-dien-5-one.HCl | 50% | 17.5 | 37.53 ± 0.05 | 36.57 ± 0.05 | 36.52 ± 0.07 | 36.51 ± 0.06 |  |  |  |  |  |  |  |  | 
 |  |  | CN(C)CCCC(=O)OC1=C(C(=O)Nc2ccccn2)N(C)S(=O)(=O)c2ccsc21.Cl [4-N,N-dimethylaminobutyryloxy-2-methyl-N-2-pyridinyl-2H-thieno[2,3-e]-1,2-thiazine-3-carboxamide 1,1-dioxide.HCl] | 53% | 16.9 | 37.54 ± 0.06 | 36.61 ± 0.06 | 36.58 ± 0.08 | 36.55 ± 0.05 | 20 mg/L | 1800 μg/cm^2/h |  |  |  |  |  |  | 
2 to 4 h | 10 mg/L | 40 μg/cm^2/h | O=C(O)CCC(=O)c1ccc(-c2ccccc2)cc1 [Fenbufen, fenbufen, reference compound] |  |  |  |  |  |  |  |  |  |  |  |  |  |  | 
2 to 4 h | 0.1 mg/L | <1 μg/cm^2/h | CN1C(C(=O)Nc2ccccn2)=C(O)c2sccc2S1(=O)=O [Tenoxicam, tenoxicam, reference compound] |  |  |  |  |  |  |  |  |  |  |  |  |  |  | 
 |  |  | CC(=O)O.CCN(CC)CCOC(=O)C(C)c1ccc(-c2ccccc2)c(F)c1 (centres unmarked) [diethylaminoethyl 2-(2-fluoro-4-biphenylyl)propionate.AcOH] |  |  |  |  |  |  | 2000 mg/L | 3500 μg/cm^2/h | 55% | 15.6 | 37.29 ± 0.07 | 36.82 ± 0.06 | 36.70 ± 0.05 | 36.67 ± 0.08 | 50 min
 |  |  | CC(=O)O.CCN(CC)CCOC(=O)C(C)c1ccc(CC2CCCC2=O)cc1 (centres unmarked) [diethylaminoethyl 2-[4-(2-oxocyclopentyl-methyl)phenyl]propionate.AcOH] |  |  |  |  |  |  | 2000 mg/L | 3400 μg/cm^2/h | 55% | 15.7 | 37.25 ± 0.06 | 36.71 ± 0.05 | 36.65 ± 0.08 | 36.64 ± 0.07 | 50 min
 |  |  | CC(=O)O.CCN(CC)CCOC(=O)CCC(=O)c1ccc(-c2ccccc2)cc1 [diethylaminoethyl 3-(4-biphenylylcarbonyl)propionate.AcOH] |  |  |  |  |  |  | 2000 mg/L | 3600 μg/cm^2/h | 59% | 14.2 | 37.23 ± 0.06 | 36.81 ± 0.05 | 36.65 ± 0.08 | 36.61 ± 0.07 | 50 min
 |  |  | CC(=O)O.CCN(CC)CCOC(=O)C(C)c1ccc(N2CC=CC2)c(Cl)c1 (stereo not drawn) [diethylaminoethyl 3-chloro-4-(2,5-dihydro-1H-pyrrol-1-yl)-α-methyl benzeneacetate.AcOH] |  |  |  |  |  |  | 2000 mg/L | 3500 μg/cm^2/h | 60% | 14.0 | 37.27 ± 0.06 | 36.68 ± 0.05 | 36.62 ± 0.08 | 36.58 ± 0.07 | 50 min
